Assay results reported in PubChem BioAssay (NCI).
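Results reflect a 48-hour exposure of cells in 96-well plates to compound at five concentrations. At the TGI there is no net growth.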

Legend:
Test in all cases: NCI anticancer screen, dose series, 48 h
UACC-257 melanoma = test system: UACC-257 melanoma
HOP-62 NSCLC = test system: HOP-62 NSCLC
U251 CNS = test system: U251 CNS
MCF7 breast = test system: MCF7 breast
HCC-2998 colon = test system: HCC-2998 colon
CAKI-1 renal = test system: CAKI-1 renal
SW-620 colon = test system: SW-620 colon
LOX IMVI melanoma = test system: LOX IMVI melanoma
HL-60(TB) leukemia = test system: HL-60(TB) leukemia
EKVX NSCLC = test system: EKVX NSCLC
SR leukemia = test system: SR leukemia
TK-10 renal = test system: TK-10 renal
SK-MEL-28 melanoma = test system: SK-MEL-28 melanoma
HCT-116 colon = test system: HCT-116 colon
KM12 colon = test system: KM12 colon
IGROV1 ovarian = test system: IGROV1 ovarian
RPMI-8226 leukemia = test system: RPMI-8226 leukemia
A549 NSCLC = test system: A549 NSCLC
NCI-H522 lung = test system: NCI-H522 lung
ACHN renal = test system: ACHN renal
NCI-H460 lung = test system: NCI-H460 lung
RXF 393 renal = test system: RXF 393 renal
NCI/ADR-RES ovarian = test system: NCI/ADR-RES ovarian
HS 578T breast = test system: HS 578T breast
K-562 leukemia = test system: K-562 leukemia
NCI-H226 lung = test system: NCI-H226 lung
CCRF-CEM leukemia = test system: CCRF-CEM leukemia
T-47D breast = test system: T-47D breast
786-0 renal = test system: 786-0 renal
SK-MEL-5 melanoma = test system: SK-MEL-5 melanoma
COLO 205 colon = test system: COLO 205 colon
HOP-92 NSCLC = test system: HOP-92 NSCLC
SNB-19 CNS = test system: SNB-19 CNS
SK-MEL-2 melanoma = test system: SK-MEL-2 melanoma
PC-3 prostate = test system: PC-3 prostate
HT29 colon = test system: HT29 colon
DU-145 prostate = test system: DU-145 prostate
SF-295 CNS = test system: SF-295 CNS
SK-OV-3 ovarian = test system: SK-OV-3 ovarian
UACC-62 melanoma = test system: UACC-62 melanoma
MALME-3M melanoma = test system: MALME-3M melanoma
MDA-MB-231 breast = test system: MDA-MB-231 breast
UO-31 renal = test system: UO-31 renal
SF-268 CNS = test system: SF-268 CNS
BT-549 breast = test system: BT-549 breast
A498 renal = test system: A498 renal
M14 melanoma = test system: M14 melanoma
SF-539 CNS = test system: SF-539 CNS
MOLT-4 leukemia = test system: MOLT-4 leukemia
OVCAR-8 ovarian = test system: OVCAR-8 ovarian
OVCAR-4 ovarian = test system: OVCAR-4 ovarian
SN12C renal = test system: SN12C renal
MDA-MB-435 = test system: MDA-MB-435
OVCAR-3 ovarian = test system: OVCAR-3 ovarian
OVCAR-5 ovarian = test system: OVCAR-5 ovarian
NCI-H23 lung = test system: NCI-H23 lung
HCT-15 colon = test system: HCT-15 colon

Measured: TGI

CC(=O)OC1CN2CCC1CC2 (configuration not stated)
> 100 µM: all assays above
